From patent publication US8263642B2, “Antimicrobial compounds and methods of use thereof” (Vanderbilt University, priority 2008, dated 2012) come the findings set out here.

Assay [1] deals with HssRS-dependent hrtAB expression. The assay can be described thus: Luminescence-based assay to monitor HssRS-dependent hrtAB expression (phrtABlux reporter), Newman. To be noted: Newman; for activation at 0.0825 µM: Staphylococcus aureus, NEWMAN, read-out: % Lumi, luminescence induced by the compound compared to the heme control (82.5 nM) in the same plate; for Luminescence: raw luminescence value obtained in a luminometer. Format: cell-based, Staphylococcus aureus. The procedure:
(§1) With reference to Table 1, “Luminescence” refers to the raw luminescence value obtained in a luminomter. “Control (82.5 nm)” refers to the luminescence value obtained from heme at 82.5 nM as a positive control in the same plate as the experimental. “% lum” is the percentage of luminescence induced by the compound as compared to the heme control in the same plate. […] All of these assays are described in the application. […] “N/T” indicates the test was not performed.
A hrtAB-driven expression system was created in the pXen vector system (Xenogen) (Francis, K. P., D. Joh, C. Bellinger-Kawahara, M. J. Hawkinson, T. F. Purchio, and P. R. Contag. 2000. Monitoring bioluminescent Staphylococcus aureus infections in living mice using a novel luxABCDE construct. Infect Immun 68:3594-3600). This vector contains a promoterless luxCDABE operon from Photorabdus luminescens which produces blue green light when expressed. The luxCDABE encodes for a fatty acid reductase (LuxCDE) that produces a long chain fatty aldehyde which, when combined with cellular flavin mononucleotide, is oxidized by a luciferase (LuxAB) to produce light. Therefore, this system is useful in that it bypasses the need for substrate addition and is capable of generating light in the absence of any added reagents. Furthermore, the luminescent signal produced by the combined activities of LuxAB and LuxCDE is of sufficient intensity to be visualized in unmanipulated intact bacteria.
To establish an assay that measures HssRS-dependent expression of luxCDABE, the promoter for hrtAB upstream of luxCDABE was cloned and transformed this vector (phrtABlux) into wildtype and ΔhssR S. aureus. A promoterless vector (plux) and a plasmid containing luxCDABE under the control of a constitutive promoter (psrtAlux) (Mazmanian, S. K., G. Liu, H. Ton-That, and O. Schneewind. 1999. “Staphylococcus aureus sortase, an enzyme that anchors surface proteins to the cell wall.” Science 285:760-763) were included as negative and positive controls, respectively. Initially, wildtype S. aureus harboring either plux, phrtABlux, or psrtAlux were plated on solid medium that either lacked heme or contained 4 μM heme. Only wildtype S. aureus containing psrtAlux produced light on solid media regardless of the presence or absence of heme. […] Light was not produced by bacteria containing plux in either condition.
To adapt this system for a HTS to measure ligand recognition by HssRS, luminescence of wildtype and ΔhssR harboring the above listed plasmids in liquid media with or without heme was measured. […] Taken together, these experiments establish a whole cell […] assay that can identify small molecule modifiers of HssRS. This screen, in some aspects, can identify molecules that can be used as molecular probes in structure-function analyses to determine the mechanism by which S. aureus sense host heme.
Upon staphylococcal exposure to heme, HssRS senses heme and activates expression of hrtAB. This process can be measured using a reporter assay that employs a vector encoding the light-producing luxCDABE operon under the control of the hrtAB promoter. This assay results in whole cell luminescence upon HssRS-dependent activation of hrtAB, forming the foundation for the development of an assay suitable for high-throughput screens for small molecule activators of HssRS.
To develop an automated HTS format, S. aureus wildtype and ΔhssR harboring reporter constructs (psrtAlux, phrtAlux, plux) can be grown for 15 hours at 37° C. in tryptic soy broth (TSB) containing 10 μg/ml chloramphenicol. The addition of chloramphenicol is useful to ensure that the staphylococci propagate the reporter plasmid upon cell division. Following growth, bacterial cultures can be normalized and 2×10^7 cells (approximately 2 μl) can be added to individual wells of black walled, clear bottomed, 96-well plates. […]

For assay [2], the system named is hrtAB-driven expression of the xylE reporter gene. Nature of the assay: XylE reporter assay (hrtAB promoter-xylE), Newman. Format: cell-based, Staphylococcus aureus. Particulars: for XylE (0.05): level of XylE induction at 0.05 uM of the compound; for XylE (0.5): level of XylE induction at 0.5 uM of the compound; for XylE (5.0): level of XylE induction at 5.0 uM of the compound; for XylE (50.0): level of XylE induction at 50.0 uM of the compound. The procedure:
as §1
Compounds that activate HssRS-driven hrtAB expression in the luciferase-based screen can be subjected to two separate counter screens to confirm these compounds as active hits. First, compounds of interest can be tested for their ability to activate expression of hrtAB in the XylE expression assay described hereinbelow. This is an in vitro assay that measures hrtAB-driven expression of the xylE reporter gene. The XylE-based reporter assay utilizes slightly more manipulations than the primary luciferase-based screen. […] It should be appreciated that a shortcoming of this counter screen is that it measures reporter gene expression, which is a similar activity as that measured in the primary assay. To address this shortcoming, compounds that are positive in both XylE- and luciferase-based assays can be subjected to a second counter screen as described hereinbelow.
S. aureus strains harboring the appropriate reporter construct were inoculated into 500 μl of TSB containing 10 μg/ml chloramphenicol in 1.5 ml tubes. Cultures were grown O/N at 37° C. with shaking. Bacteria were pelleted by centrifugation and spent medium was aspirated. The pellet was washed once with 500 μl of 20 mM potassium phosphate, pH 7.6, and resuspended in 150 μl of 100 mM potassium phosphate buffer, pH 8.0, 10% (v/v) acetone, 25 μg/ml lysostaphin. After 20 minute incubation at 37° C. and 5 minute incubation on ice, samples were centrifuged at 20,000 g for 30 minutes at 4° C. 1-10 μl of supernatant was added to a 96-well plate and 200 μl of 100 mM potassium phosphate, pH 8.0, 0.2 mM pyrocatechol was added to each well. Formation of 2-hydroxymuconic semialdehyde was tracked by measuring the absorbance at 375 nm every minute for 30 minutes on a Varian MP 50 microplate reader. Protein concentration in samples was determined by BCA (Pierce). One unit of specific activity of XylE in a sample is defined as the formation of 1 nmol of 2-hydroxymuconic semialdehyde per minute per milligram of cellular protein at 30° C. (Chien, Y., Manna, A. C., Projan, S. J., and Cheung, A. L. 1999, “SarA, a global regulator of virulence determinants in Staphylococcus aureus, binds to a conserved motif essential for sar-dependent gene regulation. J. Biol. Chem. 274, 37169-37176).
The hrtAB intergenic region was fused to the xylE structural gene by PCR-SOE. In the first reaction, primer P1B:[…] and P2B:[…] were used to amplify the hrtAB intergenic region from S. aureus strain Newman genomic DNA. In the second PCR reaction primers P3B:[…] and P4B:[…] were used to amplify the xylE structural gene using pALC1639 template DNA (provided by Dr. Ambrose Cheung) and PCR product purified using a Qiagen gel extraction kit. For the PCRSOE reaction, a 1:300 dilution of purified reaction 1 and reaction 2 PCR products was mixed and amplified by PCR using […]. This yielded a construct in which the hrtAB intergenic region is fused to the xylE gene in such a manner that the position of the start codon for xylE corresponds to the position of the start codon for […] in the hrtAB locus. The hrtAB promoter-xylE fusion DNA was then subcloned into pOS1. As a control we also constructed a promoterless xylE vector. The xylE gene was amplified from pACL1639 template DNA using the primers P1C:[…] and P2C:[…] and then cloned into the pOS1 vector.

Regarding `CC1(C)CC(=O)C(=CNCc2ccc(F)cc2)C(=O)C1`, in assay [1], the activation at 0.0825 µM turned out to be 120% and the Luminescence was determined as 1003. In assay [2], the “XylE (0.05)” value stood at 0.07, the “XylE (0.5)” value was determined as 0.09, the “XylE (5.0)” value worked out at 0.9 and the “XylE (50.0)” value came to 0.06.

For `NS(=O)(=O)c1ccc(NC(=O)CCCOc2ccc(Cl)cc2Cl)cc1`, in assay [1], the activation at 0.0825 µM was 45.6% and the Luminescence was 325. Further, in assay [2], the “XylE (0.05)” value is 0.03, the “XylE (0.5)” value is listed as 0.05, the “XylE (5.0)” value was determined as 3 and the “XylE (50.0)” value is given as 0.

The compound `O=C(Nc1c2c(nn1-c1ccc(Cl)cc1)CSC2)c1cccc(C(F)(F)F)c1` showed a Luminescence in assay [1] of 2866. In assay [2], the “XylE (0.5)” value worked out at 0.03, the “XylE (5.0)” value was found to be 0.04 and the “XylE (50.0)” value came to 0.06.

On to `Cc1cccc(C(=O)N2N=C(c3cccc(Br)c3)CC2(C)C(F)(F)F)c1` (centres unmarked), for which, in assay [1], the activation at 0.0825 µM was 572% and the Luminescence turned out to be 1683. Also, in assay [2], the “XylE (0.5)” value is reported as 0.04, the “XylE (5.0)” value is reported as 0.08 and the “XylE (50.0)” value was found to be 0.1.

As to `CCOC(=O)c1c(C)[nH]c2c1-c1cc(Br)ccc1C(=O)C2=O`, in assay [1], the activation at 0.0825 µM is 240% and the Luminescence was 2896. Further, in assay [2], the “XylE (0.05)” value came to 1, the “XylE (0.5)” value is given as 1, the “XylE (5.0)” value turned out to be 0.09 and the “XylE (50.0)” value turned out to be 0.3.

Consider `Brc1ccc(CN2CCN(c3ccccc3)CC2)o1`, for which, in assay [1], the activation at 0.0825 µM turned out to be 39.3% and the Luminescence is recorded as 166. In assay [2], the “XylE (0.05)” value is on record as 0.07, the “XylE (0.5)” value came to 0.05, the “XylE (5.0)” value turned out to be 1 and the “XylE (50.0)” value is given as 0.02.

As for `Cc1ccc(-c2nc(Nc3ccc4c(c3)OCO4)c3ccccc3n2)cc1`, the Luminescence in assay [1] is given as 2101. Moreover, in assay [2], the “XylE (0.5)” value is listed as 0.04, the “XylE (5.0)” value is 0 and the “XylE (50.0)” value is 0.

In the case of `Cc1cc(C)c(S(=O)(=O)Nc2ccc(O)c(-c3c(O)ccc4ccccc34)c2)cc1C`, in assay [1], the activation at 0.0825 µM is 354% and the Luminescence amounted to 1574. Further, in assay [2], the “XylE (0.5)” value worked out at 0.03, the “XylE (5.0)” value is on record as 0.06 and the “XylE (50.0)” value turned out to be 0.05.

As to `C/C(=N/NC(=O)c1cccc(I)c1)c1ccccc1O`, the Luminescence in assay [1] is reported as 5542. Further, in assay [2], the “XylE (0.05)” value is reported as 1, the “XylE (0.5)” value is recorded as 0.03, the “XylE (5.0)” value is recorded as 0.04 and the “XylE (50.0)” value amounted to 0.3.

As for `Cc1ccc(Nc2nc(-c3ccccc3O)nc3ccccc23)cc1`, in assay [1], the activation at 0.0825 µM stood at 360% and the Luminescence was 1922. In assay [2], the “XylE (0.5)” value is given as 0.04, the “XylE (5.0)” value stood at 0.1 and the “XylE (50.0)” value came out at 0.08.

As for `O=C(Nc1ccc(/N=N/c2ccccc2)cc1)c1cccnc1`, in assay [1], the Luminescence was determined as 3086. In addition, in assay [2], the “XylE (0.05)” value amounted to 0, the “XylE (0.5)” value is on record as 1, the “XylE (5.0)” value amounted to 1 and the “XylE (50.0)” value was 0.7.

`O=[N+]([O-])c1ccc(O)c(/C=N/c2ccccc2-c2nc3ccccc3s2)c1`: in assay [1], the activation at 0.0825 µM amounted to 630% and the Luminescence is 2904. In addition, in assay [2], the “XylE (0.05)” value is 1, the “XylE (0.5)” value stood at 50, the “XylE (5.0)” value turned out to be 1 and the “XylE (50.0)” value is 1.

For the compound `CCc1ccccc1NC(=O)C1CCCCC1C(=O)O` (centres unmarked), in assay [1], the activation at 0.0825 µM came out at 136% and the Luminescence is 576. Besides, in assay [2], the “XylE (0.05)” value was determined as 1, the “XylE (0.5)” value is 0.05, the “XylE (5.0)” value is 0.02 and the “XylE (50.0)” value came out at 1.

For `Cc1cc(-c2ccc(N)cc2)nc2ccc3ccccc3c12`, in assay [1], the activation at 0.0825 µM came out at 136% and the Luminescence is given as 576. In assay [2], the “XylE (0.05)” value amounted to 0.09, the “XylE (0.5)” value was 0.06, the “XylE (5.0)” value is 0.02 and the “XylE (50.0)” value was 0.04.

As for `O=c1oc2ccccc2c(O)c1C(c1ccc([N+](=O)[O-])o1)c1c(O)c2ccccc2oc1=O`, in assay [1], the activation at 0.0825 µM stood at 559% and the Luminescence is recorded as 1939. Besides, in assay [2], the “XylE (0.5)” value amounted to 0.02, the “XylE (5.0)” value was 0.07 and the “XylE (50.0)” value worked out at 0.

For `O=C(/C=C/c1ccc([N+](=O)[O-])s1)Nc1ccc(I)cc1`, in assay [1], the activation at 0.0825 µM is 107% and the Luminescence is 678. Moreover, in assay [2], the “XylE (0.05)” value worked out at 0.09, the “XylE (0.5)” value was determined as 4, the “XylE (5.0)” value came to 5 and the “XylE (50.0)” value was determined as 6.

With `COc1ccc(Br)cc1C(=O)NC(=S)Nc1cc(C)c(C)cc1O` [drawing 24], in assay [1], the activation at 0.0825 µM amounted to 227% and the Luminescence is on record as 946. Besides, in assay [2], the “XylE (0.05)” value is reported as 0.07, the “XylE (0.5)” value was 0.3, the “XylE (5.0)” value came out at 0.09 and the “XylE (50.0)” value is given as 0.3.
